# Assays:
# Type in all cases: in vivo, C57BL/6 mice
# [1] = Pharmacokinetics study after single oral dose of HP; details: for Blood drug concentration: 12 h after single oral dose of 50 mg/kg HP; for Blood drug concentration / concentration at 0.08 h / concentration at 0.25 h / concentration at 0.5 h / concentration at 1 h / concentration at 1.5 h / concentration at 2 h / concentration at 3 h / concentration at 4 h / concentration at 8 h / half-life / AUC(0-inf) / AUC(0-t) / Cmax / Tmax / MRT last / MRT inf: mice, n = 5; for Blood drug concentration / concentration at 0.08 h / concentration at 0.25 h / concentration at 0.5 h / concentration at 1 h / concentration at 1.5 h / concentration at 2 h / concentration at 3 h / concentration at 4 h / concentration at 8 h: mean ± SD; for concentration at 0.08 h / concentration at 0.25 h / concentration at 0.5 h / concentration at 1 h / concentration at 1.5 h / concentration at 2 h / concentration at 3 h / concentration at 4 h / concentration at 8 h / half-life / AUC(0-inf) / AUC(0-t) / Cmax / Tmax / MRT last / MRT inf: male, C57BL/6, mouse, plasma; for concentration at 0.08 h: 0.08 h after single oral dose of 50 mg/kg HP; for concentration at 0.08 h / concentration at 0.25 h / concentration at 0.5 h / concentration at 1 h / concentration at 1.5 h / concentration at 2 h / concentration at 3 h / concentration at 4 h / concentration at 8 h: read-out: Blood drug concentration; for concentration at 0.25 h: 0.25 h after single oral dose of 50 mg/kg HP; for concentration at 0.5 h: 0.5 h after single oral dose of 50 mg/kg HP; for concentration at 1 h: 1 h after single oral dose of 50 mg/kg HP; for concentration at 1.5 h: 1.5 h after single oral dose of 50 mg/kg HP; for concentration at 2 h: 2 h after single oral dose of 50 mg/kg HP; for concentration at 3 h: 3 h after single oral dose of 50 mg/kg HP; for concentration at 4 h: 4 h after single oral dose of 50 mg/kg HP; for concentration at 8 h: 8 h after single oral dose of 50 mg/kg HP; for half-life: elimination half-life; for half-life / AUC(0-inf) / AUC(0-t) / Cmax / Tmax / MRT last / MRT inf: single oral dose of 50 mg/kg HP; for MRT last: read-out: MRT(0−t); for MRT inf: read-out: MRT(0−∞)
# Procedure: All of the animals were fasted for 12 h before receiving HP and were then allowed to eat for 4 h after administration. The dosing solutions used for the animal studies were prepared by dissolving the required amounts of HP in distilled water. […] The plasma was separated and stored at 2–8°C until analysis. […] Louis, MO, USA) and then mixed with 180 μL of acetonitrile (Merck, Darmstadt, Germany) to precipitate protein. After centrifugation, aliquots (10 μL each) of the supernatant were used for analysis. […] The mobile phase consisted of solvent A [0.1% formic acid (Dikma Technologies, Inc., CA, USA) in water] and solvent B [0.1% formic acid in methanol (Merck)]. The analytes were eluted at a flow rate of 0.2 mL/min, with the following gradient elution: from 0 to 0.6 min, 20% B; linear increase to 95% B in 0.2 min; 95% B for 4 min, decrease to 20% B in 0.2 min; and stabilization at initial conditions for 6 min. The mass spectrometer was set for multiple reaction monitoring and was operated in a positive-ion mode with an electrospray ionization source. Nitrogen was used as the curtain gas and the collision gas. The ion-spray voltage was set at 5,500 V, and the gas temperature at 500°C.
# [2] = tested on: macrophages and neutrophils in kidneys; assay: Flow cytometric determination of kidney leukocytes; details: LPS-induced AKI mice, flow cytometry, N = 8
# Procedure: To determine the effect of HP on leukocyte populations in septic kidneys, kidney single-cell suspensions were prepared and analyzed. Briefly, the single-cell suspensions were first incubated with anti-mouse CD45-APC-Cy7 antibody (eBioscience, USA) for 30 min on ice. After washing, the cells were stained for 15 min on ice with fluorochrome-labeled monoclonal antibodies against anti-mouse Ly6G-PE, CD11c-FITC, or F4/80-APC (eBioscience, USA) for detection of neutrophils or macrophages. Six-color fluorescence flow cytometric analyses were performed (FACS Verse, BD, USA), and the data were analyzed with the FlowJo program (Tree Star, Inc., Ashland, CA, USA).
# [3] = tested on: caspase 3, 7, 8, 9 in kidney tissue; assay: Tubular cell apoptosis and caspases in LPS-challenged kidneys (IHC, RT-qPCR, western blot); details: MMF 10 mg/kg; magnitude less than HP at 40 mg/kg
# Procedure: LPS from Escherichia coli 0111:B4 was purchased from Sigma-Aldrich (St. Louis, MO, USA), and freshly dissolved in sterile 0.9% NaCl solution buffer before i.p. injection. For the standard treatment experiment, low dosage of LPS was used for induction of kidney injury. Inbred, 16–18 g, 4–6-week-old, male C57BL/6 mice were purchased from the SPF Biotechnology Co. Ltd. (Beijing, China). The sham group received 10 mL/kg saline by oral gavagedaily during the experiment, and at day 3 received a saline sham injection (i.p.). The LPS model group was exposed to the same procedure as the sham group, except receiving an LPS (20 mg/kg) injection (i.p.) at day 3, instead of saline. […]
# For cleaved caspase 3 immunohistochemical analysis, the endogenous peroxidase activity in each section was quenched with 3% H2O2. […] Labelling was detected with a biotin-conjugated goat anti-rabbit IgG and avidin-biotin peroxidase complex. Cleaved caspase-3-positive cells in cortexes were scored in 30 random × 400 high-power fields (HPFs) with a ZEISS Observer A1 microscope (ZEISS, Germany).
# The mRNA levels of selected important chemokines and cytokines in the kidneys, such as TNF-α, IL-1β, IL-6, intercellular adhesion molecule 1 (ICAM-1), vascular cell adhesion molecule 1 (VCAM-1), and MCP-1, as well as caspase family members, such as caspase 3, caspase 7, caspase 8, and caspase 9, were quantified by RT-qPCR. […]
# [4] = tested on: peripheral blood leukocytes; assay: Peripheral blood leukocyte counts after LPS injection; details: LPS i.p. injection
# Procedure: To understand the effect of HP on peripheral leukocytes in LPS-induced septic mice, peripheral […] was collected in heparin pretreated tubes by retro-orbital bleeding at 4, 8, 12, 24, and 48 h post-LPS injection, and the number of monocytes, lymphocytes, and neutrophils in the […] at different time points was examined by an Automatic Hematology Analyzer (Celltac E MEK-7222, Nihon Kohden, Japan). The detailed experimental procedure is shown in Figure 1C, which is similar to that used to analyze the effect of HP treatment on LPS-induced AKI.
SMILES,Blood drug concentration [1],concentration at 0.08 h [1] [nM],concentration at 0.25 h [1] [nM],concentration at 0.5 h [1] [nM],concentration at 1 h [1] [nM],concentration at 1.5 h [1] [nM],concentration at 2 h [1] [nM],concentration at 3 h [1] [nM],concentration at 4 h [1] [nM],concentration at 8 h [1] [nM],half-life [1] [h],AUC(0-inf) [1] [µM·h],AUC(0-t) [1] [µM·h],Cmax [1] [nM],Tmax [1] [h],MRT last [1] [h],MRT inf [1] [h],also measured
"O=c1ccc2cc(O)c(O)cc2o1 [Esculetin, esculetin]",Not detectable,980 ± 800,2980 ± 1240,3000 ± 1050,2240 ± 400,2250 ± 1590,650 ± 220,680 ± 880,300 ± 160,120 ± 10,2.3,6.66,6.27,3000,0.5,1.82,2.38,
"COc1c(C)c2c(c(O)c1C/C=C(\C)CCC(=O)OCCN1CCOCC1)C(=O)OC2 [MMF, Mycophenolate mofetil]",,,,,,,,,,,,,,,,,,"infiltration of CD45+ F4/80+ CD11c+ macrophages and CD45+Ly6G+ neutrophils into kidneys [2]: produced similar inhibitory results; tubular apoptosis in LPS-induced AKI [3]: ameliorated tubular apoptosis; peripheral blood monocytes at 48 h after LPS ([4]; HP 40 mg/kg, MMF 10 mg/kg, N = 8): significantly reduced peripheral blood monocytes; peripheral blood counts within the first 24 h after LPS ([4]; data not shown): did not change the peripheral blood counts"
"O=c1ccc2ccc(O)cc2o1 [Umbelliferone, umbelliferone]",Not detectable,4210 ± 2210,9120 ± 3280,7350 ± 2040,3360 ± 760,2060 ± 790,1450 ± 790,1100 ± 1300,590 ± 170,140 ± 140,1.69,12.2,11.8,9120,0.25,1.58,1.82,
O=c1ccc2ccc(O[C@@H]3O[C@H](CO[C@@H]4OC[C@](O)(CO)[C@H]4O)[C@@H](O)[C@H](O)[C@H]3O)cc2o1 [apiosylskimmin],,,,,,,,,,,,,,,,,,"concentration of plasma apiosylskimmin ([1]; mouse, in vivo, po, 50 mg/kg): too low to be determined"

# Reference: publication PMC5735979, “Total Coumarins from Hydrangea paniculata Show Renal Protective Effects in Lipopolysaccharide-Induced Acute Kidney Injury via Anti-inflammatory and Antioxidant Activities” (Frontiers in Pharmacology, 2017)
